According to PubChem BioAssay (NCI):
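All cell lines were grown in 96-well plates and treated with compound for 48 hours. GI50 = concentration required for 50% inhibition of growth. TGI marks complete inhibition of growth.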

Legend:
Assay in all cases: NCI-60 cell line screen, 48 h
[1] = test system: HCT-15 colon
[2] = test system: HL-60(TB) leukemia
[3] = test system: SK-MEL-28 melanoma
[4] = test system: OVCAR-3 ovarian
[5] = test system: OVCAR-5 ovarian
[6] = test system: A498 renal
[7] = test system: SNB-75 CNS
[8] = test system: SK-MEL-2 melanoma
[9] = test system: MOLT-4 leukemia
[10] = test system: UO-31 renal

Row | SMILES | TGI [1] | TGI [2] | TGI [3] | TGI [4] | TGI [5] | TGI [6] | TGI [7] | TGI [8] | TGI [9] | TGI [10] | GI50 [1] | GI50 [2] | GI50 [3] | GI50 [4] | GI50 [5] | GI50 [6] | GI50 [7] | GI50 [8] | GI50 [9] | GI50 [10]
1 | c1ccc2c(c1)c1ccccc1n2Cn1c2ccccc2c2ccccc21 | > 100 µM | > 100 µM | > 100 µM | > 100 µM | > 100 µM | > 100 µM | > 100 µM | > 100 µM | > 100 µM | > 100 µM | – | – | – | – | – | – | – | – | – | –
2 | CCOC(=O)/C=C/c1c(C)[nH]c(=O)[nH]c1=O | > 250 µM | > 250 µM | > 250 µM | > 250 µM | > 250 µM | > 250 µM | > 250 µM | > 250 µM | > 250 µM | > 250 µM | – | – | – | – | – | – | – | – | – | –
3 | O=C(NN1C(=O)C(Cl)C1c1cccc([N+](=O)[O-])c1)c1ccccc1O (configuration not stated) | – | > 100 µM | > 100 µM | > 100 µM | > 100 µM | – | > 100 µM | > 100 µM | > 100 µM | > 100 µM | – | – | – | – | – | – | – | – | – | –
4 | CCOC(=O)NC(Nc1cc(Cl)ccc1OC)(C(F)(F)F)C(F)(F)F | > 100 µM | > 100 µM | > 100 µM | > 100 µM | > 100 µM | > 100 µM | > 100 µM | > 100 µM | > 100 µM | > 100 µM | – | – | – | – | – | – | – | – | – | –
5 | C/C(=N\NC(=S)N1CCC(N2CCCCC2)CC1)c1ccccn1 | 6.13 µM | > 21 µM | 13.7 µM | 13.4 µM | 10.2 µM | 5.21 µM | 11.2 µM | > 100 µM | > 21 µM | 3.3 µM | – | – | – | – | – | – | – | – | – | –
6 | O=C1CCC[C@H]2O[C@@H](COC(=O)c3ccccc3)C[C@H]2O1 | > 100 µM | > 100 µM | > 100 µM | > 100 µM | > 100 µM | > 100 µM | > 100 µM | > 100 µM | > 100 µM | > 100 µM | – | – | – | – | – | – | – | – | – | –
7 | O=C1C(CO)=C[C@H](O)[C@H]2O[C@@H]12 | 278 µM | 253 µM | 294 µM | 406 µM | 346 µM | 519 µM | 561 µM | 345 µM | 355 µM | 507 µM | – | – | – | – | – | – | – | – | – | –
8 | Cc1ccc(Cl)cc1N=NC(=O)NNc1cc(Cl)ccc1C | 95.4 µM | > 100 µM | 38.9 µM | 37 µM | 32.7 µM | 48.8 µM | 36.3 µM | 32.8 µM | > 100 µM | 35.7 µM | – | – | – | – | – | – | – | – | – | –
9 | CCOc1cc(/C=C/C(=O)C(C(=O)/C=C/c2ccc(OC(=O)CNc3nc4ccccc4[nH]3)c(OCC)c2)C(=O)CNc2nc3ccccc3[nH]2)ccc1OC(=O)CNc1nc2ccccc2[nH]1 | 7.87 µM | 3.61 µM | 3.56 µM | 12.3 µM | 5.22 µM | 3.87 µM | 27.9 µM | 28.8 µM | 3.04 µM | > 100 µM | 2.53 µM | 1.62 µM | 1.77 µM | 2.81 µM | 2.09 µM | 1.68 µM | 3.73 µM | 3.26 µM | 1.47 µM | 3.98 µM
10 | O=C(N/N=C\c1cccc2ccccc12)Nc1ccccc1 | > 100 µM | – | > 100 µM | > 100 µM | > 100 µM | > 100 µM | > 100 µM | > 100 µM | > 100 µM | > 100 µM | – | – | – | – | – | – | – | – | – | –
11 | c1cc2c3c(c1)c1cc4c(cc1c[n+]3CC2)OCO4 | > 225 µM | 24.7 µM | 12.3 µM | 16.2 µM | 24.9 µM | 14.9 µM | 8.09 µM | 9.35 µM | 9.96 µM | > 176 µM | – | – | – | – | – | – | – | – | – | –
12 | COc1cc(-c2ccc(N=Nc3ccc4c(S(=O)(=O)O)cc(S(=O)(=O)O)c(N)c4c3O)c(OC)c2)ccc1N=Nc1ccc2c(S(=O)(=O)O)cc(S(=O)(=O)O)c(N)c2c1O | > 100 µM | > 62.6 µM | > 100 µM | > 100 µM | > 100 µM | > 100 µM | > 100 µM | > 100 µM | > 100 µM | > 100 µM | – | – | – | – | – | – | – | – | – | –
13 | COc1cccc2c1C(=O)c1c(O)c3c(c(O)c1C2=O)C[C@@](O)(C(=O)COC(=O)c1ccccc1)C[C@@H]3OC1CC(N)C(O)C(C)O1 (some centres not stated) | 1.76 µM | 0.69 µM | 1.95 µM | 1.42 µM | 1.64 µM | 0.261 µM | 0.738 µM | 1.99 µM | 0.275 µM | 2.06 µM | 0.451 µM | 0.0679 µM | 0.534 µM | 0.369 µM | 0.4 µM | 0.0771 µM | 0.0762 µM | 0.563 µM | 0.0302 µM | 0.497 µM
